Assay results as given in patent US20240254129A1, “HETEROCYCLIC COMPOUNDS AND USES THEREOF” (Kumquat Biosciences Inc., priority 2021, published 2024).

Experiments:
wildtype Kras / hSOS1 = biological target: T1, wildtype Kras / hSOS1 (Homo sapiens, UniProt P01116); assay: HTRF assay, wildtype Kras / SOS1 interaction; type: binding; conditions: compound nos. 401-703; read-out: IC50 against wildtype Kras
T1 construct: made in house; host or cells: E. coli BL21 (DE3)
How it was run: (§1)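 GST-tagged K-Ras (mutant or wildtype) with anti-GST-Eu donor was mixed with His-hSOS1 and anti-6His-XL665 acceptor in HEPES pH 7.4 buffer with NaCl, DTT, BSA and Igepal. After ≥10 min, HTRF was read (ex 337 nm, em 620/665 nm); 665/620 ratios gave IC50 from duplicate dilution series.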

[1] = biological target: GST-tagged K-Ras mutant / His-tagged hSOS1 (Homo sapiens, UniProt P01116); assay: HTRF assay, K-Ras mutant / SOS1 interaction; type: binding; conditions: compound nos. 401-703; read-out: IC50 against mutant Kras
GST-tagged K-Ras mutant / His-tagged hSOS1, sequence (P01116 whole entry G12D, form open): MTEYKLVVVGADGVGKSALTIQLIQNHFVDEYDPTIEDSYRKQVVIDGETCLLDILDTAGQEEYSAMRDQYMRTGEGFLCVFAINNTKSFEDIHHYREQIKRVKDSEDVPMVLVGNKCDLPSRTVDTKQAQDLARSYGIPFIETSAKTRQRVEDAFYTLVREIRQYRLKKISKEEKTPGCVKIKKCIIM
How it was run: as §1

T1 sequence (P01116 1-188 isoform P01116-2): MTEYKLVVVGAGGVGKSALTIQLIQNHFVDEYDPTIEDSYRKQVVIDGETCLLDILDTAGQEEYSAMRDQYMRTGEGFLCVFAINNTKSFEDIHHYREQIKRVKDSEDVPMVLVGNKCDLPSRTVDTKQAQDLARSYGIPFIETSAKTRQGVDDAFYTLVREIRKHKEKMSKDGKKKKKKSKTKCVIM

IC50 (wildtype Kras / hSOS1)	IC50 [1]	SMILES
> 500 nM	< 500 nM	Nc1nc2c(-c3c(Cl)cc4c(N5CC6CCC(C5)N6)nc(OCC56CCCN5CCC6)nc4c3F)cc(F)cc2s1 [Compound 542, 4-(4-(3,8-diazabicyclo-[3.2.1]octan-3-yl)-6-chloro-8-fluoro-2-((tetrahydro-1H-pyrrolizin-7a(5H)-yl)meth-oxy)quinazolin-7-yl)-6-fluorobenzo[d]thiazol-2-amine]
> 500 nM	< 500 nM	Nc1nc2c(-c3c(Cl)cc4c(N5CCCCC(N)C5)nc(OC[C@@]56CCCN5C[C@H](F)C6)nc4c3F)ccc(F)c2s1 (stereo partly drawn) [Compound 543, 4-(4-(3-aminoazepan-1-yl)-6-chloro-8-fluoro-2-(((2R,7aS)-2-fluorotetra-hydro-1H-pyrrolizin-7a(5H)-yl)methoxy)quinazolin-7-yl)-7-fluorobenzo[d]thiazol-2-amine]
> 500 nM	> 500 nM	COc1nc2c(N3CC4CCC(C3)N4)nc(OCC34CCCN3CCC4)nc2cc1-c1cccc2cccc(Cl)c12 [Compound 544, 4-(3,8-diazabicyclo[3.2.1]-octan-3-yl)-7-(8-chloronaph-thalen-1-yl)-6-methoxy-2-((tetrahydro-1H-pyrrolizin-7a(5H)-yl)methoxy)pyrido-[3,2-d]pyrimidine]
> 500 nM	> 500 nM	COc1nc2c(N3C[C@H]4CC[C@@H](C3)N4)nc(OCC34CCCN3CCC4)nc2cc1-c1cc(O)cc2ccccc12 [Compound 545, 4-(4-((1R,5S)-3,8-diazabicyclo[3.2.1]octan-3-yl)-6-methoxy-2-((tetrahydro-1H-pyrrolizin-7a(5H)-yl)methoxy)pyrido[3,2-d]pyrimidin-7-yl)naphthalen-2-ol]
> 500 nM	< 500 nM	Cc1ccc2oc(N)nc2c1-c1c(Cl)cc2c(N3CC4CCC(C3)N4)nc(OC[C@@]34CCCN3C[C@H](F)C4)nc2c1F [Compound 546, 4-(4-(3,8-diazabicyclo-[3.2.1]octan-3-yl)-6-chloro-8-fluoro-2-(((2R,7aS)-2-fluorotetrahydro-1H-pyrrol-izin-7a(5H)-yl)methoxy)-quinazolin-7-yl)-5-methyl-benzo[d]oxazol-2-amine]
> 500 nM	< 500 nM	Nc1nc2c(-c3c(Cl)cc4c(N5CC6COCC(C5)N6)nc(OC[C@@]56CCCN5C[C@H](F)C6)nc4c3F)ccc(F)c2s1 [Compound 547, 4-(4-(3-oxa-7,9-diaza-bicyclo[3.3.1]nonan-7-yl)-6-chloro-8-fluoro-2-(((2R,7aS)-2-fluorotetra-hydro-1H-pyrrolizin-7a(5H)-yl)methoxy)quinazolin-7-yl)-7-fluorobenzo[d]thiazol-2-amine]
> 500 nM	> 500 nM	Fc1c(N2CCCCc3ccccc32)ccc2c(N3CCCCCC3)nc(OCC34CCCN3CCC4)nc12 [Compound 548, 1-(4-(azepan-1-yl)-8-fluoro-2-((tetrahydro-1H-pyrrol-izin-7a(5H)-yl)methoxy)-quinazolin-7-yl)-2,3,4,5-tetrahydro-1H-benzo[b]-azepine]
> 500 nM	> 500 nM	Cc1ccc2cnn(CC#N)c2c1-c1c(Cl)cc2c(N3CC4CCC(C3)N4)nc(OC[C@@]34CCCN3C[C@H](F)C4)nc2c1F [Compound 549, 2-(7-(4-(3,8-diazabicyclo-[3.2.1]octan-3-yl)-6-chloro-8-fluoro-2-(((2R,7aS)-2-fluorotetrahydro-1H-pyrrol-izin-7a(5H)-yl)methoxy)-quinazolin-7-yl)-6-methyl-1H-indazol-1-yl)acetonitrile]
> 500 nM	< 500 nM	CC1CCCCN(c2nc(OC[C@@H]3CCCN3C)nc3c(F)c(-c4cccc5sc(N)nc45)c(Cl)cc23)C1 (stereo partly drawn) [Compound 550, 4-(6-chloro-8-fluoro-4-(3-methylazepan-1-yl)-2-(((S)-1-methylpyrrolidin-2-yl)-methoxy)quinazolin-7-yl)-benzo[d]thiazol-2-amine]
> 500 nM	< 500 nM	N#CN1CCN(c2nc(OCC34CCCN3CCC4)nc3c(F)c(-c4ccc(F)c5sc(N)nc45)c(Cl)cc23)CC(F)(F)C1 [Compound 551, 4-(7-(2-amino-7-fluorobenzo[d]thiazol-4-yl)-6-chloro-8-fluoro-2-((tetrahydro-1H-pyrrolizin-7a(5H)-yl)methoxy)quinazolin-4-yl)-6,6-difluoro-1,4-diazepane-1-carbonitrile]
> 500 nM	< 500 nM	N#Cc1c(N)sc2cccc(-c3c(Cl)cc4c(N5CC6CCC(C5)N6)nc(OC[C@@]56CCCN5C[C@H](F)C6)nc4c3F)c12 [Compound 552, 4-(4-(3,8-diazabicyclo-[3.2.1]octan-3-yl)-6-chloro-8-fluoro-2-(((2R,7aS)-2-fluorotetrahydro-1H-pyrrol-izin-7a(5H)-yl)methoxy)-quinazolin-7-yl)-2-amino-benzo[b]thiophene-3-carbonitrile]
> 500 nM	< 500 nM	Nc1nc2c(-c3c(Cl)cc4c(N5CC6CCC(C5)N6)nc(OCC5(CN6CCCC6)CC5)nc4c3F)ccc(F)c2s1 [Compound 553, 4-(4-(3,8-diazabicyclo-[3.2.1]-octan-3-yl)-6-chloro-8-fluoro-2-((1-(pyrrolidin-1-ylmethyl)cyclopropyl)meth-oxy)quinazolin-7-yl)-7-fluorobenzo[d]thiazol-2-amine]
> 500 nM	> 500 nM	CN1CCC[C@H]1COc1nc(N2CCCC(NC3CNC3)CC2)c2cc(Cl)c(-c3cccc4sc(N)nc34)c(F)c2n1 (stereo partly drawn) [Compound 554, 4-(4-(4-(azetidin-3-yl-amino)azepan-1-yl)-6-chloro-8-fluoro-2-(((S)-1-methylpyrrolidin-2-yl)-methoxy)quinazolin-7-yl)-benzo[d]thiazol-2-amine]
> 500 nM	< 500 nM	Nc1nc2c(-c3c(Cl)cc4c(N5CCNCC(F)(F)C5)nc(OCCCN5CCCC5)nc4c3F)ccc(F)c2s1 [Compound 555, 4-(6-chloro-4-(6,6-difluoro-1,4-diazepan-1-yl)-8-fluoro-2-(3-(pyrrolidin-1-yl)-propoxy)quinazolin-7-yl)-7-fluorobenzo[d]thiazol-2-amine]
> 500 nM	< 500 nM	Nc1nc2c(-c3c(Cl)cc4c(N5CC6CNC(C6)C5)nc(OC[C@@]56CCCN5C[C@H](F)C6)nc4c3F)ccc(F)c2s1 (stereo partly drawn) [Compound 556, 4-(4-(3,6-diazabicyclo-[3.2.1]octan-3-yl)-6-chloro-8-fluoro-2-(((2R,7aS)-2-fluorotetrahydro-1H-pyrrol-izin-7a(5H)-yl)methoxy)-quinazolin-7-yl)-7-fluoro-benzo[d]thiazol-2-amine]
> 500 nM	< 500 nM	N#Cc1c(N)sc2c(F)ccc(-c3c(Cl)cc4c(N5CCCNCC5)nc(OC[C@@]56CCCN5C[C@H](F)C6)nc4c3F)c12 [Compound 557, 2-amino-4-(6-chloro-4-(1,4-diazepan-1-yl)-8-fluoro-2-(((2R,7aS)-2-fluorotetra-hydro-1H-pyrrolizin-7a(5H)-yl)methoxy)quinazolin-7-yl)-7-fluorobenzo[b]thio-phene-3-carbonitrile]
> 500 nM	> 500 nM	N#Cc1ccc2ccccc2c1-c1c(Cl)cc2c(N3CC4CCC(C3)N4)nc(OC[C@@]34CCCN3C[C@H](F)C4)nc2c1F [Compound 558, 1-(4-(3,8-diazabicyclo-[3.2.1]octan-3-yl)-6-chloro-8-fluoro-2-(((2R,7aS)-2-fluorotetrahydro-1H-pyrrol-izin-7a(5H)-yl)methoxy)-quinazolin-7-yl)-2-naph-thonitrile]
> 500 nM	> 500 nM	CN1CCC[C@H]1COc1nc(N2CCCC(NC3CC3)CC2)c2cc(Cl)c(-c3cccc4sc(N)nc34)c(F)c2n1 (stereo partly drawn) [Compound 559, 4-(6-chloro-4-(4-(cyclo-propylamino)azepan-1-yl)-8-fluoro-2-(((S)-1-methyl-pyrrolidin-2-yl)methoxy)-quinazolin-7-yl)benzo[d]-thiazol-2-amine]
> 500 nM	> 500 nM	Fc1c(-c2cccc3ccsc23)c(Cl)cc2c(N3CC4CCC(C3)N4)nc(OC[C@@]34CCCN3C[C@H](F)C4)nc12 [Compound 560, 7-(benzo[b]thiophen-7-yl)-4-(3,8-diazabicyclo[3.2.1]-octan-3-yl)-6-chloro-8-fluoro-2-(((2R,7aS)-2-fluorotetrahydro-1H-pyrrol-izin-7a(5H)-yl)methoxy)-quinazoline]
> 500 nM	> 500 nM	Cc1ccc2[nH]nc(C#N)c2c1-c1ccc2c(N3CC4CCC(C3)N4)nc(OC[C@@]34CCCN3C[C@H](F)C4)nc2c1F [Compound 561, 4-(4-(3,8-diazabicyclo-[3.2.1]octan-3-yl)-8-fluoro-2-(((2R,7aS)-2-fluorotetra-hydro-1H-pyrrolizin-7a(5H)-yl)methoxy)quinazolin-7-yl)-5-methyl-1H-indazole-3-carbonitrile]
> 500 nM	< 500 nM	CN1CCC[C@H]1COc1nc(N2CCCCC(O)C2)c2cc(Cl)c(-c3cccc4sc(N)nc34)c(F)c2n1 (stereo partly drawn) [Compound 562, 1-(7-(2-aminobenzo[d]-thiazol-4-yl)-6-chloro-8-fluoro-2-(((S)-1-methyl-pyrrolidin-2-yl)methoxy)-quinazolin-4-yl)azepan-3-ol]
> 500 nM	> 500 nM	Nc1c(F)ccc(-c2c(Cl)cc3c(N4CC5CCC(C4)N5)nc(OCC45CCCN4CCC5)nc3c2F)c1F [Compound 563, 3-(4-(3,8-diazabicyclo-[3.2.1]octan-3-yl)-6-chloro-8-fluoro-2-((tetrahydro-1H-pyrrolizin-7a(5H)-yl)meth-oxy)quinazolin-7-yl)-2,6-difluoroaniline]
> 500 nM	> 500 nM	Nc1cc(-c2c(Cl)cc3c(N4CC5CCC(C4)N5)nc(OCC45CCCN4CCC5)nc3c2F)c2ccccc2c1 [Compound 564, 4-(4-(3,8-diazabicyclo-[3.2.1]octan-3-yl)-6-chloro-8-fluoro-2-((tetrahydro-1H-pyrrolizin-7a(5H)-yl)meth-oxy)quinazolin-7-yl)naph-thalen-2-amine]
